“Also recorded” adds a separate entry of the source. Counter-ions that a name gives are not always drawn.
Key:
human MOR [1] = biological target: T1, human MOR (Homo sapiens, UniProt P35372)
human MOR [2] = biological target: T1, human MOR; assay type: biochemical; set-up: expressed in transfected cells; membranes
mouse DOR [3] = biological target: T2, mouse DOR (Mus musculus, UniProt P32300); test: basal [35S]GTPγS binding in DOR cell membranes with or without agonist pretreatment; assay type: biochemical; set-up: expressed in transfected cells; membranes
animals = test: precipitated withdrawal jumping in animals; assay type: in vivo; settings: compared with naloxone
mouse DOR [4] = biological target: T2, mouse DOR
human KOR = biological target: T3, human KOR (Homo sapiens, UniProt P41145); test: biochemical; settings: for Emax: read-out: Emax of decrease of basal GTPγS binding
T3 construct: expressed in transfected cells; membranes
T3 sequence (P41145 whole entry): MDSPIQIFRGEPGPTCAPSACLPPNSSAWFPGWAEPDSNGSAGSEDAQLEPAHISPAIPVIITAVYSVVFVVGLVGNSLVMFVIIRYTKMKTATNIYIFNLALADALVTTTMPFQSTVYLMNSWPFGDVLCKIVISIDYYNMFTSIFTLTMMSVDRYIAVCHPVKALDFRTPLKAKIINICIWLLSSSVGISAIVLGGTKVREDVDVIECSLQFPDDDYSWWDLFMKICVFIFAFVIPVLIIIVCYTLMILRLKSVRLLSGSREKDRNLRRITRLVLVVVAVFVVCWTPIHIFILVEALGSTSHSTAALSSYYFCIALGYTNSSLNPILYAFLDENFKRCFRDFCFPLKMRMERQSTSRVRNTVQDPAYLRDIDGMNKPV

T1 sequence (P35372 whole entry): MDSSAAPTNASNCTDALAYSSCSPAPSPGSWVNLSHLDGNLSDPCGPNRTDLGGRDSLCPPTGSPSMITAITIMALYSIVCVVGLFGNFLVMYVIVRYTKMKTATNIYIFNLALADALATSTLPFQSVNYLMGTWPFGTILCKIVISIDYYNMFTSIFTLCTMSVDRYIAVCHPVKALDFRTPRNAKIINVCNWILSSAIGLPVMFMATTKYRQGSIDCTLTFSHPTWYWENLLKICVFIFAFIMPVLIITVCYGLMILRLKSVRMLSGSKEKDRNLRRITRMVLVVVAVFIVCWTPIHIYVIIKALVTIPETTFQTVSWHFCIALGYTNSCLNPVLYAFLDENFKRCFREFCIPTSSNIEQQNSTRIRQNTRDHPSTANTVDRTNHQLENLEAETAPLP
T2 sequence (P32300 whole entry): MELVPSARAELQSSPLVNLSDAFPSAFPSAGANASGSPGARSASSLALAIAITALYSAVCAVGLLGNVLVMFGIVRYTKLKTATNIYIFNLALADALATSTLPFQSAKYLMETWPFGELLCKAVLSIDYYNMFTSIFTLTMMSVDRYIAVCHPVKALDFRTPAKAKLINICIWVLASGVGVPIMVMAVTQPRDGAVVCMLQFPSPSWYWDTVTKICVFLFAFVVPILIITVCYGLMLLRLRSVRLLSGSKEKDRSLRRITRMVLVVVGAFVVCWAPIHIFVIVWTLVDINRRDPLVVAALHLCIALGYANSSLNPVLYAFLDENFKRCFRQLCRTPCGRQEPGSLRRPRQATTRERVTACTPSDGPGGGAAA

C[C@@H](NC(=O)[C@@H](N)Cc1ccc(O)cc1)C(=O)NCC(=O)N(C)[C@@H](Cc1ccccc1)C(=O)NCCO [DAMGO, [D-Ala2,N-Me-Phe4,Gly5-ol]-enkephalin]
change of agonist Emax value after pretreatment (human MOR [1]): decreased

O=C1C(=Cc2ccccc2)C[C@@]2(O)[C@H]3Cc4ccc(O)c5c4[C@@]2(CCN3CC2CC2)[C@H]1O5 [BNTX, 7-benzylidenenaltrexone]
change of inverse agonist effects after pretreatment (human MOR [2]): increased
shift of inverse agonist dose-response curve after pretreatment (human MOR [2]): shifted the dose-response curve of BNTX to the left

N,N-diallyl-Tyr-Aib-Aib-Phe-Leu-OH [ICI 174,864]
change of inverse agonist effects after pretreatment (mouse DOR [3]; DPDPE pre-exposure, DOR): decreased
change of inverse agonist Emax after pretreatment (mouse DOR [3]; morphine pretreatment, DOR): without affecting
shift of inverse agonist dose-response curve after pretreatment (mouse DOR [3]; morphine pretreatment, DOR): shifted the dose-response curve for ICI 174,864 to the left

Oc1ccc2c3c1O[C@H]1[C@H](O)CC[C@@]4(O)[C@@H](C2)N(CC2CC2)CC[C@]314 [6β-naltrexol]
inhibition of the inverse agonist effect of naloxone (mouse DOR [3]; DPDPE-pretreated DOR membranes): inhibited
pharmacological property at DOR (mouse DOR [3]; after DPDPE or morphine pretreatment): neutral antagonist property; also recorded: remained neutral
precipitated withdrawal jumping (animals): less withdrawal jumping than naloxone
antagonistic property against agonist-stimulated [35S]GTPγS binding (mouse DOR [4]; 30 nM DPDPE, DOR membranes): full antagonists

N=C(N)Nc1ccc2[nH]c3c(c2c1)CC1(O)C2Cc4ccc(O)c5c4C1(CCN2CC1CC1)C3O5 (stereo not drawn) [GNTI, 5′-guanidinyl-17-(cyclopropylmethyl)-6,7-dehydro-4,5α-epoxy-3,14-dihydroxy-6,7-2′3′-indolomorphinan dihydrochloride]
EC50 of decrease of basal GTPγS binding (human KOR): femtomolar range
change of inverse agonist effects after pretreatment (human KOR): increased
pharmacological property at KOR (human KOR): inverse agonists
Emax (human KOR): ~10%

[D-Pen2,D-Pen5]-enkephalin [DPDPE]
change of agonist Emax value after pretreatment (mouse DOR [4]): decreased

Oc1ccc2c3c1O[C@H]1c4[nH]c5c(c4C[C@@]4(O)[C@@H](C2)N(CC2CC2)CC[C@]314)C[C@@]1(O)[C@H]2Cc3ccc(O)c4c3[C@@]1(CCN2CC1CC1)[C@H]5O4 [nor-BNI, nor-binaltorphimine]
change of inverse agonist effects after pretreatment (human KOR): increased
pharmacological property at KOR (human KOR): inverse agonists
Emax (human KOR): ~10%

Reference: patent US20110195433A1 (priority 2007, published 2011)
